Where two headings read alike, the source gives them in different places.

Series [1] has as its target T1, ovine COX-1 (Ovis aries, UniProt P05979).
T1 construct: purchased Cayman Chemicals (Ann Arbor, Mich.)
T1 sequence (P05979 25-600): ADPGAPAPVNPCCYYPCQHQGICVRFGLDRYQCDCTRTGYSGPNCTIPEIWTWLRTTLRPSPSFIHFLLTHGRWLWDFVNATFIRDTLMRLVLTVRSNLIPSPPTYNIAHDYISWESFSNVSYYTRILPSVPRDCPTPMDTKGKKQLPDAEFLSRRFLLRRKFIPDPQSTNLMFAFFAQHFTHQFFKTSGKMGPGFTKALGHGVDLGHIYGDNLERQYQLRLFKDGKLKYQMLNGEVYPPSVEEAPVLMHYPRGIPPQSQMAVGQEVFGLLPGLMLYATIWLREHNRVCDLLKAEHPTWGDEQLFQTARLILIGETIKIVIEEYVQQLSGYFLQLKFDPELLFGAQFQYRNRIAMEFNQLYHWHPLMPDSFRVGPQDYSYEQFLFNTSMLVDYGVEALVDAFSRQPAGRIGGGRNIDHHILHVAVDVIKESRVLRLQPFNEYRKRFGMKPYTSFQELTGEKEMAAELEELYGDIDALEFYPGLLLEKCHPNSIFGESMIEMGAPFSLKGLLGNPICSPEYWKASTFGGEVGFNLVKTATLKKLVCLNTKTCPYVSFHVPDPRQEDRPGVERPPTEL
Kind of series: COX-1 activity assay using purified enzyme. The format is biochemical. How it is done:
(§1) COX-1 and COX -2 activity assay using purified enzymes—The enzymatic reactions were performed in 0.1M Tris (pH 8.0), in the presence of 5 mM EDTA, 2 mM phenol, and 1 μM heme. […] Enzymatic reactions were initiated by addition of AA at a final concentration of 5 μM for 2 min. The reaction was stopped by addition of 0.1 M HCl. Stannous chloride in 0.1 M HCl was then added to reduce PGG2 and PGH2 to PGF2a. After addition of 0.5 vol of […] NaCl, prostaglandins formed in the reaction were extracted using 2.5 vol of ethyl acetate and the organic layer was completely dried under N2. PGF2a, and PGE2 were quantified using ELISA assays from Cayman Chemicals.

The target of series [2] is T2, COX-2 (Homo sapiens, UniProt P35354).
T2 sequence (P35354 18-604): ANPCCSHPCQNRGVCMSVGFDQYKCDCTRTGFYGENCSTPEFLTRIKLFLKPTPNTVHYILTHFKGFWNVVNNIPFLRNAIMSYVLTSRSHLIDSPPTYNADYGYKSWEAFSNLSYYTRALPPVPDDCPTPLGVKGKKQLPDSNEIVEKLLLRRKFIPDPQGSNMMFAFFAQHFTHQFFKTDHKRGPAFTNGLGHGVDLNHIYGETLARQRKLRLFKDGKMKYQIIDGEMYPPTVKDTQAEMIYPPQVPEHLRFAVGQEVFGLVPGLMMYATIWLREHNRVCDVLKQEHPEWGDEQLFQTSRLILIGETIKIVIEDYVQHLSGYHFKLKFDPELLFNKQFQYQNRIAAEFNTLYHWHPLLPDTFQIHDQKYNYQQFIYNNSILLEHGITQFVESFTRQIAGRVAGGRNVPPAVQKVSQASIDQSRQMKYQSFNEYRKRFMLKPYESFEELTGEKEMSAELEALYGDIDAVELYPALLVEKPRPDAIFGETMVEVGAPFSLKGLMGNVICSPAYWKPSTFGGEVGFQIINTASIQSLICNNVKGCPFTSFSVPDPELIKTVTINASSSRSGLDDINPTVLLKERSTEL
Kind of series: COX-2 activity assay using purified enzyme. Set-up: purchased Cayman Chemicals (Ann Arbor, Mich.). To be noted: at 250 μM. The format is biochemical. How it is done: as §1

Series [3] has as its system PGE2 in IL-1β treated A549 cells. Kind of series: PGE2 generation during chronic IL-1β treatment. The format is cell-based, human. To be noted: for IC50: read-out: concentration to cause 50% inhibition of PGE2, in the presence of exogenous AA (5 μM, 5 min) after co-incubation with IL-1β. How it is done: A549 cells were pre-incubated with different concentrations of tocopherols in the presence or absence of 1 μM sesamin for 15 h, and then treated with IL-1β (2 ng/mL) for 24 h. PGE2 in the cell-culture media was measured by ELISA assays. Results are the averages of three independent experiments and expressed as Mean±SEM.
A549 cells were pre-incubated with different concentrations of tocotrienols in the presence or absence of 1 μM sesamin for 15 h, and then treated with IL-1β (2 ng/mL) for 24 h. PGE2 in the cell-culture media was measured by ELISA assays. Results are the averages of three independent experiments and expressed as Mean±SEM.
PGE2 generation during chronic IL-1β treatment—2.5−3×10^5 A549 cells per well were seeded in RPMI-1640 with 10% of FBS and allowed to attach overnight in a 24-well plate. Vitamin E stock solutions were initially made in DMSO and then diluted in 10 mg/mL of bovine serum albumin. Confluent cells were incubated in DMEM containing 1% FBS with DMSO (control) or vitamin E forms for 14-16 h and then 2 ng/ml of IL-1β was introduced for 24 hours. The medium was then collected and PGE2 accumulation was measured using ELISA assay from Cayman Chemicals (Ann Arbor, Mich.).
Statistical analysis—The unpaired student's t-test was used in the statistical analysis. All results are expressed as mean±SD. Activation of human lung epithelial A549 cells by IL-1β leads to a strong up-regulation of COX-2 protein expression and almost 100-fold increase of PGE2 generation. This cellular system has been employed to evaluate inhibitory potency of anti-inflammatory drugs, including COX inhibitors and was previously used by us to study the effect of α-T, γ-T and γ-CEHC on PGE2 formation (13, 20). […] Inhibition of PGE2 by γ-T, and γ-TE was also observed in the presence of exogenous AA, where after co-incubated with vitamin E forms and IL-1β, cells were incubated with fresh media containing 5 μM of AA for 5 min.

For series [4], the system named is IL-1beta-stimulated PGE2 formation in A549 cells. Kind of series: IL-1beta-stimulated PGE2 formation with or without sesamin (Table 4). To be noted: IL-1beta 2 ng/ml, 8 h; 13′-COOH 2.5 uM, sesamin 1 uM. The format is cell-based, human. How it is done: Briefly, A549 cells were stimulated with IL-1beta (2 ng/ml) in the presence of DMSO (ctrl, 0.1%), control with sesamin (1 uM), 13′-COOH (structure 1) at 2.5 uM, 13′-COOH with sesamin (1 uM). Basal control was cells incubated with medium without IL-1beta. Eight hours later, media were collected and PGE2 was measured by ELISA.

Series [5] has as its system A549 cells. Kind of series: Cell viability of confluent A549 cells (MTT). Type of series: cell-based, human. To be noted: 100% confluent cells, 1% FBS.
In series [6] the test system is A549 cells. Kind of series: Metabolites of vitamin E forms in A549 conditioned media (HPLC). To be noted: 20 μM. Type of series: in vitro ADME, human. On the procedure:
FIG. 3A illustrates that unconjugated long-chain carboxychromanols but not sulfated derivatives inhibited COX-2 activity in intact cells. […] Sulfated metabolites were the sum of 9′S, 11′S and 13′S, and unconjugated metabolites are the sum of 9′, 11′ and 13′. Conditioned media were obtained by incubation of A549 cells with γ-TE at 20 μM for 24, 48 and 72 h. Metabolites were extracted and measured using HPLC assay. The conditioned media were then used for the activity assay as described in FIG. 2A and 2B. Unsulfated/sulfated is the ratio of the sum of 9′, 11′ and 13′ to that of 9′S, 11′S and 13′S. All the results are expressed as Mean±SD. […]
Quantitation of vitamin E metabolites in conditioned media—Long-chain carboxychromanols and their sulfated counterparts were quantitated by a HPLC assay with fluorescent detection (17). […]
Extracted metabolites were separated using HPLC and detected by a Shimadzu RF-10AXL spectrofluorometric detector (Shimadzu, Columbia, Md.) with the excitation and emission wavelength at 292 nm and 327 nm, respectively. […] Long-chain metabolites were quantified using tocopherols as the external standards with a correction factor based on the linear relationship between fluorescent intensity and solvent content (17).

Series [7] has as its target T3, 5-LOX (Homo sapiens, UniProt P09917).
T3 sequence (P09917 1-674): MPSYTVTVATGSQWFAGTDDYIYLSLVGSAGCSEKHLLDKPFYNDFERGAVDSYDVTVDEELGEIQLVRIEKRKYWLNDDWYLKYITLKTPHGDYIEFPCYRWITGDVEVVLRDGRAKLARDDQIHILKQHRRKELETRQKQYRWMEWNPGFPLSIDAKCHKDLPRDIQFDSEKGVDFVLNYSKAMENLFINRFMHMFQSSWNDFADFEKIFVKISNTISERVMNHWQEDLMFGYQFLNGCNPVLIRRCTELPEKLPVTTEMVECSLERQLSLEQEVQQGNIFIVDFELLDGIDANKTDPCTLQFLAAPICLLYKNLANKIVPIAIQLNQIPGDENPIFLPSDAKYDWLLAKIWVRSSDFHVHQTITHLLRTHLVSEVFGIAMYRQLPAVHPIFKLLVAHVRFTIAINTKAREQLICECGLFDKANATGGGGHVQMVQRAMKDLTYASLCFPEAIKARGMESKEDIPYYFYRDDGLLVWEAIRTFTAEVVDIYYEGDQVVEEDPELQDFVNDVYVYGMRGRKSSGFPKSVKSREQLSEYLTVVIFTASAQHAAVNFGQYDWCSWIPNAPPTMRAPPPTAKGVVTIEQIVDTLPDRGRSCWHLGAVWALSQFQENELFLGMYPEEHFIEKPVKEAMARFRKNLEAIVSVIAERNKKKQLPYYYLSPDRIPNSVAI
Kind of series: 5-LOX inhibition with purified human enzyme (Table 3). Type of series: biochemical. As to conditions: mean±SEM. The text has this:
Results are mean±SEM based on four or more independent experiments.

In series [8] the target is T2, COX-2. Kind of series: COX-2 inhibition with purified human enzyme (Table 3). To be noted: mean±SEM. Type of series: biochemical. Set-up: A549 cells were pre-treated with 0.5-1 ng/mL of IL-1β- for 6 hours to induce COX-2 expression; endogenous in cells. The text has this: Free radical biology & medicine 95, 190-199. Results are mean±SEM based on four or more independent experiments.

Series [9] is described as follows: LC-MS analysis of fecal samples of mice fed δTE-13′. As to conditions: mice fed with δTE-13′. The format is in vivo. The text has this:
FIG. 6. Detection of δTE-13′-1 in fecal samples.

`CC(=O)Nc1ccc(O)cc1` [Acetaminophen, reference compound]: the “inhibition of COX-1” value in series [1] (at 250 μM) is on record as “did not significantly inhibit”. Besides, the “IC50 COX-1” value in [1] (purified enzyme, Not inhibit: 9′ at 20 μM, acetaminophen at 250 μM) is “Not inhibit*”. Moreover, the “inhibition of COX-2” value in series [2] is listed as “did not significantly inhibit”.
Consider `c1cc2c(cc1[C@H]1OC[C@H]3[C@@H]1CO[C@@H]3c1ccc3c(c1)OCO3)OCO2` [sesamin, reference compound], for which, in [3] (sesamin alone at 1 μM), the “effect on PGE2 generation” value is reported as “did not affect”. This compound registered a PGE2 in [4] of 12.46 ± 1.4 ng/mL.
With `CC(C)=CCC/C(C)=C/CC/C(C)=C/CC[C@]1(C)CCc2c(C)c(O)c(C)c(C)c2O1` [α-TE, α-Tocotrienol], in series [3] (at 20 μM, A549 cells co-treated with IL-1β), the “inhibition of PGE2 formation” value was found to be 20%.
Take `CC(C)=CCC/C(C)=C/CC/C(C)=C/CC[C@]1(C)CCc2cc(O)c(C)c(C)c2O1` [γ-TE, γ-tocotrienol]: the “effect of sesamin on the inhibitory potency on PGE2” value in [3] (in the presence of 1 μM sesamin) is listed as “moderately diminished”. The IC50 in series [3] came to 10 µM. The “cell viability (MTT, cell morphology)” value in [5] (20 μM) is “did not show significant effects”. Further, the “share of metabolites that are sulfated carboxychromanols” value in series [6] (72-h incubation) was “more than 85%”. Moreover, in [6] (first 24-h incubation), the “share of metabolites that are unconjugated carboxychromanols” value was determined as 90%.
As for `Cc1c(O)cc2c(c1C)OC(C)(CCCC(C)CCCC(C)CCCC(C)C)CC2` (centres unmarked) [γ-T], the IC50 is 25 µM in series [3] (Homo sapiens, A549, 5 min); more than 50 µM in series [7]; more than 50 µM in series [8]. Moreover, the “cell viability (MTT, cell morphology)” value in [5] (25-50 μM) is on record as “did not show significant effects”.
As to `Cc1cc(O)cc2c1OC(C)(CCCC(C)CCCC(C)CCCC(C)C)CC2` (centres unmarked) [δ-T], the IC50 in series [3] (Homo sapiens, A549, 5 min) was 10 µM; in [7], more than 50 µM; in series [8], more than 50 µM. The “cell viability (MTT, cell morphology)” value in [5] (25-50 μM) is on record as “did not show significant effects”.
On to `C/C(=C\CCC1(C)CCc2cc(O)cc(C)c2O1)CC/C=C(\C)CCCC(C)C(=O)O` (centres unmarked) [δTE-13′-1], for which the “formation in fecal samples” value in [9] is “detected”.

The values above are taken from US20170296505A1, “LONG-CHAIN CARBOXYCHROMANOLS AND ANALOGS FOR USE AS ANTI-INFLAMMATORY AGENTS” (Purdue Research Foundation, priority 2008, published 2017).
